Reference: US20050124554A1, “Spermidine derivatives for the treatment of chronic neurodegenerative diseases” (priority 2002, published 2005)

Experiments:
[1] = tested on: acute hippocampal slices (CA1 pyramidal cell layer, Schaffer collateral stimulation); test: Electrophysiology: evoked field responses / synaptic transmission; design: species or system Sprague-Dawley rats
Text: All animal procedures to produce acute hippocampal slices were approved by the Home Office. Male, 250 g, Sprague-Dawley rats were deeply anaesthetised with halothane and decapitated. The brain was quickly removed, and the hippocampi dissected out and then cut into 300 μm thick transverse slices on a vibratome (Leica, Milton Keynes, UK) in cold cutting solution (in mM: 189 sucrose, 2.5 KCl, 26 NaHCO3, 1.2 NaH2PO4, 10 glucose, 5 MgCl2, 0.1 CaCl2) equilibrated with 5% CO2, 95% O2. Slices were transferred to aCSF (in mM: 10 glucose, 125 NaCl, 5 KCl, 26 NaHCO3, 1 MgCl2, 1.25 NaH2PO4, 2 CaCl2, 10 sucrose) at room temperature, bubbled with 5% CO2 and 95% O2, for at least 1 h before use.
Slices were then transferred to a submerged perfusion chamber (2 ml volume) for the electrophysiological recordings and were perfused at 10 ml min^−1 at 25° C. with aCSF equilibrated with 5% CO2 and 95% O2, and allowed to equilibrate for 1 h before manipulations were started. Experimental compounds were applied by bath perfusion. L-Arg3,4 was applied at 300 μM and DNQX was applied at 10 μM final concentration. DNQX was diluted from a 40 mM stock in DMSO (final DMSO of 0.025%). The Schaffer collaterals of CA3 were stimulated at voltages from 0 to 30 V with a constant voltage stimulator (Digitimer, Hertfordshire, UK) via a twisted pair stimulating electrode of polyimide coated stainless steel wire (Plastics One, Roanoke, Va.). Field potential responses were recorded with an Axopatch 200B amplifier (Axon Instruments, Foster City, Calif.) in the fast current clamp mode via a 2M KCl filled glass electrode (2-5 MQ) in the CA1 pyramidal cell layer. Responses were filtered at 2 kHz, digitised at 20 kHz with a Digidata 1320A (Axon Instruments), and stored onto hard disk with Clampex 8.1 software (Axon Instruments) running on a Dell Pentium III PC. Data was analysed in Clampfit 8.1 (Axon Instruments).
Stimulus-response (S/R) curves were generated from stimuli from 0 to 30 V in 2 V increments. Bath perfusion of 300 μM L-Arg3,4 in aCSF was applied for 10 min with a sub-maximal stimulus applied every minute to monitor synaptic transmission. A second S/R curve was generated before the perfusion was switched back to plain aCSF. A sub-maximal stimulus was applied every minute during the 15 min wash period after which a third SIR curve was generated. Perfusion of 10 μM DNQX was then started until the response to the sub-maximal stimulus was completely eliminated which always occurred within 10 min. […] In Clampfit, S/R curves were fit to a sigmoidal function of the form: [formula] where R is the magnitude of the evoked response, Rmax is the maximum response, V50 is the voltage which produces a half maximal response, S is the stimulus voltage, and m is proportional to the slope of the linear region of the sigmoid. Data was compared by one way ANOVA.

[2] = tested on: organotypic hippocampal slice cultures (CA1 pyramidal cell layer); test: Experimental ischaemia (oxygen glucose deprivation), cell death by PI fluorescence; assay type: cell-based, Wistar rat
Procedure: Organotypic hippocampal slice cultures were prepared according to established methods (Pringle et al. (1997), Brain Res., 755, 36-46). In brief, Wistar rat pups (8-11 days old) were decapitated and the hippocampus rapidly dissected into ice-cold Gey's balanced salt solution (Gibco Life Technologies, Paisley, UK) supplemented with 4.5 mg ml^−1 glucose. Slices were separated and plated onto Millicell CM culture inserts (4 per well) and maintained at 37° C. and 5% CO2 for 14 days. Maintenance medium consisted of 25% heat-inactivated horse serum, 25% Hank's balanced salt solution (HBSS) and 50% minimum essential medium with added Earle's salts MM, ICN Biomedicals, Basingstoke, UK) supplemented with 1 mM glutamine and 4.5 mg ml^−1 glucose. Medium was changed every 3-4 days.
Experimental ischaemia or oxygen glucose deprivation was performed as described previously (Pringle et al. (1996), Stroke, 27, 2124-2130). Briefly, cultures were transferred to serum-free media (SFM, 75% MEM, 25% HDSS supplemented with 1 mM glutamine and 4.5 mg ml^−1 glucose) containing 5 μg ml^−1 of the fluorescent exclusion dye propidium iodide (PI). Cultures were allowed to equilibrate in SFM for 30 min prior to imaging, with or without L-Arg3,4. PI fluorescence was detected using a Leica inverted microscope as described below. Any cultures in which PI fluorescence was detected at this stage were excluded from further study. Ischaemia was induced by transferring cultures to glucose-free media (MEM with Earl's salts without glucose and supplemented with 1 mM glutamine) saturated with 95% N2 and 5% CO2. Culture plates (without lids) were then sealed into an airtight chamber (Billups-Rothenberg, Del Mar, Calif.) gassed with 95% N2 and 5% CO2 at 10 L min^−1 for 10 min before being sealed and placed at 37° C. for 50 min. At the end of the ischaemia, cultures were returned to normoxic SFM+PI, with or without compound at the indicated concentrations, and placed back in the incubator for 24 h.
Neuronal damage was assessed as described previously (Pringle et al. (1996), Stroke, 27, 2124-2130; Pringle et al. (1997), Brain Res., 755, 36-46). Light transmission images were captured prior to the induction of injury, and PI fluorescence images recorded at the end of the 24 h post-injury recovery period. All images were captured on an inverted Leica DM-IRBE epifluorescence microscope (Milton Keynes, UK) fitted with a 100 W Hg lamp and standard rhodamine optics (excitation 510-560 nm; dichroic mirror […]; emission>590 nm). Images were acquired with a 5×NA 0.12 lens and a cooled Hamamatsu digital camera and digitised at 12 bit resolution for analysis in OpenLab 2.1 (Improvision, Coventry, UK) running on a Macintosh G4/400. The area of the CA1 or CA3 cell layer was determined from the transmission image, and the area of PI fluorescence in that cell layers was measured using the density slice function within OpenLab. Neuronal damage was expressed as a percentage of the area in which PI fluorescence was detected above threshold within a cell layer divided by the total area of that cell layer. Protection was calculated as the difference between the damage for a given well and the average damage in untreated controls divided by the average damage in untreated controls. Groups were compared against corresponding control groups using the two tailed Student's t-test with significance indicated as * for P<0.05, and ** for P<0.01. Data is presented as mean±s.e.mean.

[3] = during bath perfusion of 300 μM, n=6
[4] = 300 μM applied 0 min post-injury
[5] = 300 μM applied 10 min post-injury
[6] = 300 μM applied 60 min post-injury

N=C(N)NCCCC(N)C(=O)NCCCNCCCCN [L-Arg3,4, L-arginyl-3,4-spermidine]
effect on evoked responses ([1]; bath application, L-Arg3,4 300 μM, DNQX 10 μM): had no effect on evoked responses | Rmax (maximum evoked response, S/R curve fit) [1, 3]: 2.71 ± 1.31 mV | V50 (voltage producing half maximal response) [1, 3]: 15.98 ± 5.12 V | m (proportional to slope of sigmoid) [1, 3]: 0.59 ± 0.48 | damage ([2]; 300 nM post-injury, dose study): did not reduce damage | damage ([2]; 3 μM post-injury, dose study): 19±5% | protection ([2]; 3 μM post-injury, dose study): 43% | damage ([2]; 30 μM post-injury, dose study): 11±3% | protection ([2]; 30 μM post-injury, dose study): 67% | delay of administration post-ischaemia at which still neuroprotective (therapeutic window) ([2]; 300 μM): up to 60 min | damage [2, 4]: 23±3% | protection [2, 4]: 40% | damage [2, 5]: 15±2% | protection [2, 5]: 59% | damage ([2]; 300 μM applied 30 min post-injury): 28±4% | protection ([2]; 300 μM applied 30 min post-injury, not statistically significant): 26% | damage [2, 6]: 26±3% | protection [2, 6]: 30% | damage ([2]; 300 μM post-injury, dose study): 23±3% | protection ([2]; 300 μM post-injury, dose study): 32% | protection ([2]; 300 μM pre-, during, and post-ischaemia (PDP)): 39% | neurodegeneration (PI area as % of cell layer) ([2]; 300 μM pre-, during, and post-ischaemia (PDP), 1 h ischaemia, 24 h): 23±4%
